Key:
Type in all cases: in vivo
[1] = tested on: Echinochloa crus-galli (ECHCG); experiment: Herbicidal glasshouse test, post-emergence; conditions: post-emergence (sprayed after 8 days cultivation), 1000 g/h, evaluated after 13 days
Experimental: (§1) Seeds of a variety of test species are sown in standard soil in pots (Alopecurus myosuroides (ALOMY), Setaria faberi (SETFA), Echinochloa crus-galli (ECHCG), Solanum nigrum (SOLNI), Amaranthus retoflexus (AMARE), Ipomoea hederacea (IPOHE)). After cultivation for one day (pre-emergence) or after 8 days cultivation (post-emergence) under controlled conditions in a glasshouse (at 24/16° C., day/night; 14 hours light; 65% humidity), the plants are sprayed with an aqueous spray solution derived from the formulation of the technical active ingredient in acetone/water (50:50) solution containing 0.5% Tween 20 (polyoxyethelyene sorbitan monolaurate, CAS RN 9005-64-5). Compounds are applied at 1000 g/h. The test plants are then grown in a glasshouse under controlled conditions in a glasshouse (at 24/16° C., day/night; 14 hours light; 65% humidity) and watered twice daily. After 13 days for pre and post-emergence, the test is evaluated for the percentage damage caused to the plant. The biological activities are shown in the following table on a five point scale (5=80-100%; 4=60-79%; 3=40-59%; 2=20-39%; 1=0-19%).

[2] = tested on: Amaranthus retoflexus (AMARE); experiment: Herbicidal glasshouse test, post-emergence; conditions: post-emergence (sprayed after 8 days cultivation), 1000 g/h, evaluated after 13 days
Experimental: as §1

[3] = tested on: Alopecurus myosuroides (ALOMY); experiment: Herbicidal glasshouse test, post-emergence; conditions: post-emergence (sprayed after 8 days cultivation), 1000 g/h, evaluated after 13 days
Experimental: as §1

Setaria faberi (SETFA) [4] = experiment: Herbicidal glasshouse test, post-emergence; conditions: post-emergence (sprayed after 8 days cultivation), 1000 g/h, evaluated after 13 days
Experimental: as §1

Solanum nigrum (SOLNI) [5] = experiment: Herbicidal glasshouse test, post-emergence; conditions: post-emergence (sprayed after 8 days cultivation), 1000 g/h, evaluated after 13 days
Experimental: as §1

[6] = tested on: Ipomoea hederacea (IPOHE); experiment: Herbicidal glasshouse test, post-emergence; conditions: post-emergence (sprayed after 8 days cultivation), 1000 g/h, evaluated after 13 days
Experimental: as §1

[7] = tested on: Echinochloa crus-galli (ECHCG); experiment: Herbicidal glasshouse test, pre-emergence; conditions: pre-emergence (sprayed after cultivation for one day), 1000 g/h, evaluated after 13 days
Experimental: as §1

[8] = tested on: Amaranthus retoflexus (AMARE); experiment: Herbicidal glasshouse test, pre-emergence; conditions: pre-emergence (sprayed after cultivation for one day), 1000 g/h, evaluated after 13 days
Experimental: as §1

[9] = tested on: Alopecurus myosuroides (ALOMY); experiment: Herbicidal glasshouse test, pre-emergence; conditions: pre-emergence (sprayed after cultivation for one day), 1000 g/h, evaluated after 13 days
Experimental: as §1

Setaria faberi (SETFA) [10] = experiment: Herbicidal glasshouse test, pre-emergence; conditions: pre-emergence (sprayed after cultivation for one day), 1000 g/h, evaluated after 13 days
Experimental: as §1

Solanum nigrum (SOLNI) [11] = experiment: Herbicidal glasshouse test, pre-emergence; conditions: pre-emergence (sprayed after cultivation for one day), 1000 g/h, evaluated after 13 days
Experimental: as §1

[12] = tested on: Ipomoea hederacea (IPOHE); experiment: Herbicidal glasshouse test, pre-emergence; conditions: pre-emergence (sprayed after cultivation for one day), 1000 g/h, evaluated after 13 days
Experimental: as §1

## Cc1cc(C(=O)Nc2nnnn2C)c(=O)n(-c2ccccc2)n1 [Compound 1.001]
[1]
  percentage damage caused to the plant, five point scale, POST Application ECHCG: 5 (5=80-100%)
[2]
  percentage damage caused to the plant, five point scale, POST Application AMARE: 4 (4=60-79%)
[3]
  percentage damage caused to the plant, five point scale, POST Application ALOMY: 5 (5=80-100%)
Setaria faberi (SETFA) [4]
  percentage damage caused to the plant, five point scale, POST Application SETFA: 3 (3=40-59%)
Solanum nigrum (SOLNI) [5]
  percentage damage caused to the plant, five point scale, POST Application SOLNI: 5 (5=80-100%)
[6]
  percentage damage caused to the plant, five point scale, POST Application IPOHE: 4 (4=60-79%)
[7]
  percentage damage caused to the plant, five point scale, PRE Application ECHCG: 4 (4=60-79%)
[8]
  percentage damage caused to the plant, five point scale, PRE Application AMARE: 5 (5=80-100%)
[9]
  percentage damage caused to the plant, five point scale, PRE Application ALOMY: 5 (5=80-100%)
Setaria faberi (SETFA) [10]
  percentage damage caused to the plant, five point scale, PRE Application SETFA: 3 (3=40-59%)
Solanum nigrum (SOLNI) [11]
  percentage damage caused to the plant, five point scale, PRE Application SOLNI: 5 (5=80-100%)
[12]
  percentage damage caused to the plant, five point scale, PRE Application IPOHE: 3 (3=40-59%)

## Cc1cc(C(=O)Nc2nnnn2C)c(=O)n(-c2ccccc2C)n1 [Compound 1.003]
[1]
  percentage damage caused to the plant, five point scale, POST Application ECHCG: 5 (5=80-100%)
[2]
  percentage damage caused to the plant, five point scale, POST Application AMARE: 5 (5=80-100%)
[3]
  percentage damage caused to the plant, five point scale, POST Application ALOMY: 4 (4=60-79%)
Setaria faberi (SETFA) [4]
  percentage damage caused to the plant, five point scale, POST Application SETFA: 3 (3=40-59%)
Solanum nigrum (SOLNI) [5]
  percentage damage caused to the plant, five point scale, POST Application SOLNI: 5 (5=80-100%)
[6]
  percentage damage caused to the plant, five point scale, POST Application IPOHE: 5 (5=80-100%)
[7]
  percentage damage caused to the plant, five point scale, PRE Application ECHCG: 5 (5=80-100%)
[8]
  percentage damage caused to the plant, five point scale, PRE Application AMARE: 5 (5=80-100%)
[9]
  percentage damage caused to the plant, five point scale, PRE Application ALOMY: 2 (2=20-39%)
Setaria faberi (SETFA) [10]
  percentage damage caused to the plant, five point scale, PRE Application SETFA: 3 (3=40-59%)
Solanum nigrum (SOLNI) [11]
  percentage damage caused to the plant, five point scale, PRE Application SOLNI: 4 (4=60-79%)
[12]
  percentage damage caused to the plant, five point scale, PRE Application IPOHE: 4 (4=60-79%)

## COc1ccccc1-n1nc(C)cc(C(=O)Nc2nnnn2C)c1=O [Compound 1.004]
[1]
  percentage damage caused to the plant, five point scale, POST Application ECHCG: 5 (5=80-100%)
[2]
  percentage damage caused to the plant, five point scale, POST Application AMARE: 5 (5=80-100%)
[3]
  percentage damage caused to the plant, five point scale, POST Application ALOMY: 5 (5=80-100%)
Setaria faberi (SETFA) [4]
  percentage damage caused to the plant, five point scale, POST Application SETFA: 5 (5=80-100%)
Solanum nigrum (SOLNI) [5]
  percentage damage caused to the plant, five point scale, POST Application SOLNI: 5 (5=80-100%)
[6]
  percentage damage caused to the plant, five point scale, POST Application IPOHE: 5 (5=80-100%)
[7]
  percentage damage caused to the plant, five point scale, PRE Application ECHCG: 5 (5=80-100%)
[8]
  percentage damage caused to the plant, five point scale, PRE Application AMARE: 5 (5=80-100%)
[9]
  percentage damage caused to the plant, five point scale, PRE Application ALOMY: 5 (5=80-100%)
Setaria faberi (SETFA) [10]
  percentage damage caused to the plant, five point scale, PRE Application SETFA: 5 (5=80-100%)
Solanum nigrum (SOLNI) [11]
  percentage damage caused to the plant, five point scale, PRE Application SOLNI: 5 (5=80-100%)
[12]
  percentage damage caused to the plant, five point scale, PRE Application IPOHE: 4 (4=60-79%)

## Cc1cc(C(=O)Nc2nnnn2C)c(=O)n(-c2cc(Cl)cc(Cl)c2)n1 [Compound 1.005]
[1]
  percentage damage caused to the plant, five point scale, POST Application ECHCG: 5 (5=80-100%)
[2]
  percentage damage caused to the plant, five point scale, POST Application AMARE: 5 (5=80-100%)
[3]
  percentage damage caused to the plant, five point scale, POST Application ALOMY: 5 (5=80-100%)
Setaria faberi (SETFA) [4]
  percentage damage caused to the plant, five point scale, POST Application SETFA: 5 (5=80-100%)
Solanum nigrum (SOLNI) [5]
  percentage damage caused to the plant, five point scale, POST Application SOLNI: 5 (5=80-100%)
[6]
  percentage damage caused to the plant, five point scale, POST Application IPOHE: 5 (5=80-100%)
[7]
  percentage damage caused to the plant, five point scale, PRE Application ECHCG: 5 (5=80-100%)
[8]
  percentage damage caused to the plant, five point scale, PRE Application AMARE: 5 (5=80-100%)
[9]
  percentage damage caused to the plant, five point scale, PRE Application ALOMY: 5 (5=80-100%)
Setaria faberi (SETFA) [10]
  percentage damage caused to the plant, five point scale, PRE Application SETFA: 5 (5=80-100%)
Solanum nigrum (SOLNI) [11]
  percentage damage caused to the plant, five point scale, PRE Application SOLNI: 5 (5=80-100%)
[12]
  percentage damage caused to the plant, five point scale, PRE Application IPOHE: 5 (5=80-100%)

## Cc1cc(C(=O)Nc2nnnn2C)c(=O)n(-c2ccc(Br)cc2)n1 [Compound 1.006]
[1]
  percentage damage caused to the plant, five point scale, POST Application ECHCG: 5 (5=80-100%)
[2]
  percentage damage caused to the plant, five point scale, POST Application AMARE: 5 (5=80-100%)
[3]
  percentage damage caused to the plant, five point scale, POST Application ALOMY: 5 (5=80-100%)
Setaria faberi (SETFA) [4]
  percentage damage caused to the plant, five point scale, POST Application SETFA: 5 (5=80-100%)
Solanum nigrum (SOLNI) [5]
  percentage damage caused to the plant, five point scale, POST Application SOLNI: 5 (5=80-100%)
[6]
  percentage damage caused to the plant, five point scale, POST Application IPOHE: 4 (4=60-79%)
[7]
  percentage damage caused to the plant, five point scale, PRE Application ECHCG: 5 (5=80-100%)
[8]
  percentage damage caused to the plant, five point scale, PRE Application AMARE: 5 (5=80-100%)
[9]
  percentage damage caused to the plant, five point scale, PRE Application ALOMY: 5 (5=80-100%)
Setaria faberi (SETFA) [10]
  percentage damage caused to the plant, five point scale, PRE Application SETFA: 5 (5=80-100%)
Solanum nigrum (SOLNI) [11]
  percentage damage caused to the plant, five point scale, PRE Application SOLNI: 5 (5=80-100%)
[12]
  percentage damage caused to the plant, five point scale, PRE Application IPOHE: 4 (4=60-79%)

## Cc1cc(C(=O)Nc2nnnn2C)c(=O)n(-c2cccc(Br)c2)n1 [Compound 1.007]
[1]
  percentage damage caused to the plant, five point scale, POST Application ECHCG: 5 (5=80-100%)
[2]
  percentage damage caused to the plant, five point scale, POST Application AMARE: 5 (5=80-100%)
[3]
  percentage damage caused to the plant, five point scale, POST Application ALOMY: 5 (5=80-100%)
Setaria faberi (SETFA) [4]
  percentage damage caused to the plant, five point scale, POST Application SETFA: 5 (5=80-100%)
Solanum nigrum (SOLNI) [5]
  percentage damage caused to the plant, five point scale, POST Application SOLNI: 5 (5=80-100%)
[6]
  percentage damage caused to the plant, five point scale, POST Application IPOHE: 5 (5=80-100%)
[7]
  percentage damage caused to the plant, five point scale, PRE Application ECHCG: 5 (5=80-100%)
[8]
  percentage damage caused to the plant, five point scale, PRE Application AMARE: 5 (5=80-100%)
[9]
  percentage damage caused to the plant, five point scale, PRE Application ALOMY: 5 (5=80-100%)
Setaria faberi (SETFA) [10]
  percentage damage caused to the plant, five point scale, PRE Application SETFA: 5 (5=80-100%)
Solanum nigrum (SOLNI) [11]
  percentage damage caused to the plant, five point scale, PRE Application SOLNI: 5 (5=80-100%)
[12]
  percentage damage caused to the plant, five point scale, PRE Application IPOHE: 3 (3=40-59%)

## Cc1cc(C(=O)Nc2nnnn2C)c(=O)n(-c2ccc(C#N)cn2)n1 [Compound 1.022]
[1]
  percentage damage caused to the plant, five point scale, POST Application ECHCG: 5 (5=80-100%)
[2]
  percentage damage caused to the plant, five point scale, POST Application AMARE: 5 (5=80-100%)
[3]
  percentage damage caused to the plant, five point scale, POST Application ALOMY: 5 (5=80-100%)
Setaria faberi (SETFA) [4]
  percentage damage caused to the plant, five point scale, POST Application SETFA: 5 (5=80-100%)
Solanum nigrum (SOLNI) [5]
  percentage damage caused to the plant, five point scale, POST Application SOLNI: 5 (5=80-100%)
[6]
  percentage damage caused to the plant, five point scale, POST Application IPOHE: 4 (4=60-79%)

Source: patent US9402398B2, “Herbicidal compounds” (SYNGENTA PARTICIPATIONS AG, priority 2012, dated 2016)
